Structures can show the parent of a compound that is named as a salt.
Tests used:
E. coli S30 extract = test: E. coli S30 extract: inhibition of bacterial protein synthesis (luciferase); type: biochemical; conditions: 37° C. 1 hour
Protocol: E. coli S30 extract: Inhibition of bacterial protein synthesis was determined using the E. coli S30 Extract System for Circular DNA (Promega catalog #L-2010) and Luciferase Assay Reagent (Promega catalog #E1500) with slight modifications to a published protocol. Fyfe, C., Sutcliffe, J. A. and Grossman, T. H. (2012) “Development and characterization of a Pseudomonas aeruginosa in vitro coupled transcription-translation assay system for evaluation of translation inhibitors” J. Microbiol. Methods 90(3), 256-261.
Compounds were serial diluted in 0.5 mL microcentrifuge tubes by mixing and transferring 50 μL from the highest concentration to 50 μL of water, mixing and transferring 50 μL of this 2-fold dilution to 50 μL of water. This mixing and transferring was repeated so that there are a total of 8 tubes with serial dilutions of compound at 10× the desired screening concentration that are ultimately diluted to 1× by the addition of S30 luciferase synthesis mixture. Serial dilutions of compounds were added (2 μL) to wells in a black round bottom 96-well plate. Water (2 μL) was used as a “no inhibitor” control in 4 wells/plate. No DNA control reaction mixture (20 μL; see below) was used as a control in 4 wells/plate for background luminescence. S30 luciferase synthesis mixture (18 μL; see below) was added to wells with compounds or water mixture and incubated at 37° C. for 1 hour. Reactions were stopped by transferring to 4° C. refrigerator for 5 minutes then 25 μL of luciferase activity mix was added. Luminescence was measured using a BioTek Synergy HTX plate reader. % Inhibition was determined relative to no inhibitor controls.
• 445 μL S30 extract, circular • 712 μL S30 Premix without amino acids • 4.45 μL pBESTluc™ DNA (1 μg/μL) • 78 μL complete amino acid mixture • 267 μL water
• 20 μL S30 extract, circular • 32 μL S30 Premix without amino acids • 7 μL complete amino acid mixture • 21 μL water

[1] = molecular target: Rabbit Reticulocyte Lysate; test: Rabbit Reticulocyte Lysate: inhibition of eukaryotic protein synthesis (luciferase); type: biochemical; conditions: 30° C. 90 minutes, read-out: Retic. IC50
Protocol: Inhibition of eukaryotic protein synthesis was determined using the Rabbit Reticulocyte Lysate System, Nuclease-Treated from Promega (catalog #L-4960) with slight modifications to the manufacturer's protocol. Compounds were serial diluted in 0.5 mL microcentrifuge tubes by mixing and transferring 50 μL from the highest concentration to 50 μL of water, mixing and transferring 50 μL of this 2-fold dilution to 50 μL of water. This mixing and transferring was repeated so that there are a total of 8 tubes with serial dilutions of compound at 10× the desired screening concentration that are ultimately diluted to 1× by the addition of rabbit reticulocyte luciferase synthesis mixture. Serial dilutions of compounds were added ([…]) to wells in a black round bottom 96-well plate. Water (2.5 μL) was used as a “no inhibitor” control in 4 wells/plate. No RNA control reaction mixture ([…]; see below) was used as a control in 4 wells/plate for background luminescence. Rabbit reticulocyte luciferase synthesis mixture (22.5 μL; see below) was added to wells with compounds or water mixture and incubated at 30° C. for 90 minutes. Luciferase assay reagent (25 μL) was added with luminescence measured using a BioTek Synergy HTX plate reader. % Inhibition was determined relative to no inhibitor controls.
• 1,000 μL rabbit reticulocyte lysate • 5.7 μL Luciferase Control RNA (1 μg/μL) • 26 μL complete amino acid mixture • 395 μL water
• 70 μL rabbit reticulocyte lysate • 2 μL complete amino acid mixture • 28 μL water

Compound | IC50 (E. coli S30 extract) [nM] | IC50 [1] [nM]
CC(C)(N)C(=O)N1CCN(C(=O)Nc2ccn(C3=CCC(CN4C[C@@H]5[C@@H](N)[C@@H]5C4)CC3)c(=O)n2)CC1 (single isomer, unassigned) [Compound 34, 4-(2-Amino-2-methylpropanoyl)-N-(1-(4-(((exo)-6-amino-3-azabicyclo[3.1.0]hexan-3-yl)methyl)cyclohex-1-en-1-yl)-2-oxo-1,2-dihydropyrimidin-4-yl)piperazine-1-carboxamide hydrochloride salt] | < 500 | ≥ 1000
CC1(N)CCN(CC2CC=C(n3ccc(NC(=O)N4CCN(C(=O)C(C)(C)N)CC4)nc3=O)CC2)CC1 (single isomer, unassigned) [Compound 38, 4-(2-Amino-2-methylpropanoyl)-N-(1-(4-((4-amino-4-methylpiperidin-1-yl)methyl)cyclohex-1-en-1-yl)-2-oxo-1,2-dihydropyrimidin-4-yl)piperazine-1-carboxamide hydrochloride salt] | < 500 | ≥ 1000
CC(C)(N)C(=O)N1CCN(C(=O)Nc2ccn(C3=CCC(CN[C@H]4CC[C@H](N)CC4)CC3)c(=O)n2)CC1 (single isomer, unassigned) [Compound 40, trans-4-(2-Amino-2-methylpropanoyl)-N-(1-(4-(((4-aminocyclohexyl)amino)methyl)cyclohex-1-en-1-yl)-2-oxo-1,2-dihydropyrimidin-4-yl)piperazine-1-carboxamide hydrochloride salt] | < 500 | ≥ 1000
CC(C)(N)C(=O)N1CCN(C(=O)Nc2ccn(C3=CCC(CN4CCCC(N)CC4)CC3)c(=O)n2)CC1 (single isomer, unassigned) [Compound 42, 4-(2-Amino-2-methylpropanoyl)-N-(1-(4-((4-aminoazepan-1-yl)methyl)cyclohex-1-en-1-yl)-2-oxo-1,2-dihydropyrimidin-4-yl)piperazine-1-carboxamide hydrochloride salt] | < 500 | ≥ 1000
CC(C)(N)C(=O)N1CCN(C(=O)Nc2ccn(C3CCC(CN4CC(N)C4)CC3)c(=O)n2)CC1 (centres unmarked) [Compound 10, 4-(2-Amino-2-methylpropanoyl)-N-(1-(4-((3-aminoazetidin-1-yl)methyl)cyclohexyl)-2-oxo-1,2-dihydropyrimidin-4-yl)piperazine-1-carboxamide hydrochloride salt] | ≥ 1000 | ≥ 1000
CC(C)(N)C(=O)N1CCN(C(=O)Nc2ccn(C3=CCC(CN4CC5CC5(N)C4)CC3)c(=O)n2)CC1 (centres unmarked) [Compound 29, 4-(2-Amino-2-methylpropanoyl)-N-(1-(4-((1-amino-3-azabicyclo [3.1.0]hexan-3-yl)methyl)cyclohex-1-en-1-yl)-2-oxo-1,2-dihydropyrimidin-4-yl)piperazine-1-carboxamide hydrochloride salt] | 500 to 1000 | 
